Among the data in PubChem BioAssay AID2060611 (Molecular Pharmacology Branch, DTP, NCI, 2025) are viability, T/C values, retold here.

Structures are written as SMILES.
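Further: spheroids exposed to agents for seven days before readout; 100% = DMSO vehicle control viability.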

The subject of the first test is 628569-122-R-J1-PDC complex spheroid viability. The experiment in a line: Anticancer human tumor 628569-122-R-J1-PDC patient-derived head and neck squamous carcinoma cell line growth inhibition [CLK]. The conditions noted are these: second compound 3.16 µM; first compound 0.1 µM; active compounds read low. The gist of the method: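 Multi-cell-type spheroids combined patient-derived tumor cells with HUVEC endothelial cells and human mesenchymal stem cells. Paired agents were dosed in half-log steps down from about clinical Cmax, or from 10 microM where Cmax was unknown.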
In the case of `O=c1[nH]cc(F)c(=O)[nH]1` + CN1CCN(c2cc(C(=O)Nc3cc4cc(-c5cnn(C)c5)ccc4cn3)ccn2)CC1, the viability, T/C was 7.33%.
Still for that read-out and setting: the figure for `Nc1ccccc1NC(=O)c1ccc(CNC(=O)OCc2cccnc2)cc1` + CN1CCN(c2cc(C(=O)Nc3cc4cc(-c5cnn(C)c5)ccc4cn3)ccn2)CC1 is 3.97%; for `Nc1ccn(C2OC(CO)C(O)C2(F)F)c(=O)n1` (centres undefined) + CNC(=O)c1ccc(Nc2nc(OC3CCCC3)c3c(-c4ccc5nc(C)oc5c4)c[nH]c3n2)c(OC)c1 it is 43.6%.
On the same count and under the same terms, the value for `O=C(c1cc(Cc2n[nH]c(=O)c3ccccc23)ccc1F)N1CCN(C(=O)C2CC2)CC1` + CN1CCN(c2cc(C(=O)Nc3cc4cc(-c5cnn(C)c5)ccc4cn3)ccn2)CC1 was 7.39%.

The same test, now with this note: second compound 3.16 µM; first compound 0.316 µM; active compounds read low.
On to `O=c1[nH]cc(F)c(=O)[nH]1` + CN1CCN(c2cc(C(=O)Nc3cc4cc(-c5cnn(C)c5)ccc4cn3)ccn2)CC1, for which the viability, T/C is 9.99%.
Still for that read-out and setting: the value for `Nc1ccccc1NC(=O)c1ccc(CNC(=O)OCc2cccnc2)cc1` + CN1CCN(c2cc(C(=O)Nc3cc4cc(-c5cnn(C)c5)ccc4cn3)ccn2)CC1 was 7.25%.
The same measure, in the same setting: the figure for `Nc1ccn(C2OC(CO)C(O)C2(F)F)c(=O)n1` (centres undefined) + CNC(=O)c1ccc(Nc2nc(OC3CCCC3)c3c(-c4ccc5nc(C)oc5c4)c[nH]c3n2)c(OC)c1 is 38.2%; for `O=C(c1cc(Cc2n[nH]c(=O)c3ccccc23)ccc1F)N1CCN(C(=O)C2CC2)CC1` + CN1CCN(c2cc(C(=O)Nc3cc4cc(-c5cnn(C)c5)ccc4cn3)ccn2)CC1 it is 8.5%.

Staying with this test, now noted: second compound 3.16 µM; first compound 1 µM; active compounds read low.
`O=c1[nH]cc(F)c(=O)[nH]1` + CN1CCN(c2cc(C(=O)Nc3cc4cc(-c5cnn(C)c5)ccc4cn3)ccn2)CC1: the viability, T/C was 8.76%.
Same read-out and setting: the value for `Nc1ccccc1NC(=O)c1ccc(CNC(=O)OCc2cccnc2)cc1` + CN1CCN(c2cc(C(=O)Nc3cc4cc(-c5cnn(C)c5)ccc4cn3)ccn2)CC1 was 5.7%.
With `Nc1ccn(C2OC(CO)C(O)C2(F)F)c(=O)n1` (centres undefined) + CNC(=O)c1ccc(Nc2nc(OC3CCCC3)c3c(-c4ccc5nc(C)oc5c4)c[nH]c3n2)c(OC)c1, the viability, T/C is 33.5%.
Still for that read-out and setting: the figure for `O=C(c1cc(Cc2n[nH]c(=O)c3ccccc23)ccc1F)N1CCN(C(=O)C2CC2)CC1` + CN1CCN(c2cc(C(=O)Nc3cc4cc(-c5cnn(C)c5)ccc4cn3)ccn2)CC1 is 5.51%.

Staying with this test, now noted: second compound 3.16 µM; first compound 3.16 µM; active compounds read low.
In the case of `O=c1[nH]cc(F)c(=O)[nH]1` + CN1CCN(c2cc(C(=O)Nc3cc4cc(-c5cnn(C)c5)ccc4cn3)ccn2)CC1, the viability, T/C is 12%.
As to `Nc1ccccc1NC(=O)c1ccc(CNC(=O)OCc2cccnc2)cc1` + CN1CCN(c2cc(C(=O)Nc3cc4cc(-c5cnn(C)c5)ccc4cn3)ccn2)CC1, the viability, T/C is 8.72%.
Turning to `Nc1ccn(C2OC(CO)C(O)C2(F)F)c(=O)n1` (centres undefined) + CNC(=O)c1ccc(Nc2nc(OC3CCCC3)c3c(-c4ccc5nc(C)oc5c4)c[nH]c3n2)c(OC)c1, the viability, T/C is 50.3%.
Take `O=C(c1cc(Cc2n[nH]c(=O)c3ccccc23)ccc1F)N1CCN(C(=O)C2CC2)CC1` + CN1CCN(c2cc(C(=O)Nc3cc4cc(-c5cnn(C)c5)ccc4cn3)ccn2)CC1: the viability, T/C was 6.5%.

Staying with this test, now noted: second compound 3.16 µM; first compound 10 µM; active compounds read low.
As for `O=c1[nH]cc(F)c(=O)[nH]1` + CN1CCN(c2cc(C(=O)Nc3cc4cc(-c5cnn(C)c5)ccc4cn3)ccn2)CC1, the viability, T/C is 4.06%.
As for `Nc1ccccc1NC(=O)c1ccc(CNC(=O)OCc2cccnc2)cc1` + CN1CCN(c2cc(C(=O)Nc3cc4cc(-c5cnn(C)c5)ccc4cn3)ccn2)CC1, the viability, T/C is 6.19%.
With `Nc1ccn(C2OC(CO)C(O)C2(F)F)c(=O)n1` (centres undefined) + CNC(=O)c1ccc(Nc2nc(OC3CCCC3)c3c(-c4ccc5nc(C)oc5c4)c[nH]c3n2)c(OC)c1, the viability, T/C was 39.5%.
The same measure, in the same setting: the figure for `O=C(c1cc(Cc2n[nH]c(=O)c3ccccc23)ccc1F)N1CCN(C(=O)C2CC2)CC1` + CN1CCN(c2cc(C(=O)Nc3cc4cc(-c5cnn(C)c5)ccc4cn3)ccn2)CC1 is 8.04%.

The test is the same for the next values; noted with them: second compound 10 µM; first compound 0.0316 µM; active compounds read low.
Consider `O=c1[nH]cc(F)c(=O)[nH]1` + CN1CCN(c2cc(C(=O)Nc3cc4cc(-c5cnn(C)c5)ccc4cn3)ccn2)CC1, for which the viability, T/C was 11%.
The same measure, in the same setting: the figure for `Nc1ccccc1NC(=O)c1ccc(CNC(=O)OCc2cccnc2)cc1` + CN1CCN(c2cc(C(=O)Nc3cc4cc(-c5cnn(C)c5)ccc4cn3)ccn2)CC1 is 4.78%.
On the same count and under the same terms, the figure for `Nc1ccn(C2OC(CO)C(O)C2(F)F)c(=O)n1` (centres undefined) + CNC(=O)c1ccc(Nc2nc(OC3CCCC3)c3c(-c4ccc5nc(C)oc5c4)c[nH]c3n2)c(OC)c1 is 49.3%; for `O=C(c1cc(Cc2n[nH]c(=O)c3ccccc23)ccc1F)N1CCN(C(=O)C2CC2)CC1` + CN1CCN(c2cc(C(=O)Nc3cc4cc(-c5cnn(C)c5)ccc4cn3)ccn2)CC1 it is 3.42%.

Staying with this test, now noted: second compound 10 µM; first compound 0.1 µM; active compounds read low.
Turning to `O=c1[nH]cc(F)c(=O)[nH]1` + CN1CCN(c2cc(C(=O)Nc3cc4cc(-c5cnn(C)c5)ccc4cn3)ccn2)CC1, the viability, T/C was 2.54%.
Still for that read-out and setting: the value for `Nc1ccccc1NC(=O)c1ccc(CNC(=O)OCc2cccnc2)cc1` + CN1CCN(c2cc(C(=O)Nc3cc4cc(-c5cnn(C)c5)ccc4cn3)ccn2)CC1 was 5.48%; that for `Nc1ccn(C2OC(CO)C(O)C2(F)F)c(=O)n1` (centres undefined) + CNC(=O)c1ccc(Nc2nc(OC3CCCC3)c3c(-c4ccc5nc(C)oc5c4)c[nH]c3n2)c(OC)c1 was 46.1%.
Still for that read-out and setting: the value for `O=C(c1cc(Cc2n[nH]c(=O)c3ccccc23)ccc1F)N1CCN(C(=O)C2CC2)CC1` + CN1CCN(c2cc(C(=O)Nc3cc4cc(-c5cnn(C)c5)ccc4cn3)ccn2)CC1 was 3.07%.

The test is the same for the next values; noted with them: second compound 10 µM; first compound 0.316 µM; active compounds read low.
In the case of `O=c1[nH]cc(F)c(=O)[nH]1` + CN1CCN(c2cc(C(=O)Nc3cc4cc(-c5cnn(C)c5)ccc4cn3)ccn2)CC1, the viability, T/C is 4.42%.
The same measure, in the same setting: the figure for `Nc1ccccc1NC(=O)c1ccc(CNC(=O)OCc2cccnc2)cc1` + CN1CCN(c2cc(C(=O)Nc3cc4cc(-c5cnn(C)c5)ccc4cn3)ccn2)CC1 is 5.47%.
On the same count and under the same terms, the value for `Nc1ccn(C2OC(CO)C(O)C2(F)F)c(=O)n1` (centres undefined) + CNC(=O)c1ccc(Nc2nc(OC3CCCC3)c3c(-c4ccc5nc(C)oc5c4)c[nH]c3n2)c(OC)c1 was 39.5%; that for `O=C(c1cc(Cc2n[nH]c(=O)c3ccccc23)ccc1F)N1CCN(C(=O)C2CC2)CC1` + CN1CCN(c2cc(C(=O)Nc3cc4cc(-c5cnn(C)c5)ccc4cn3)ccn2)CC1 was 1.85%.

Still in this test, the particulars now being: second compound 10 µM; first compound 1 µM; active compounds read low.
Consider `O=c1[nH]cc(F)c(=O)[nH]1` + CN1CCN(c2cc(C(=O)Nc3cc4cc(-c5cnn(C)c5)ccc4cn3)ccn2)CC1, for which the viability, T/C was 2.63%.
As for `Nc1ccccc1NC(=O)c1ccc(CNC(=O)OCc2cccnc2)cc1` + CN1CCN(c2cc(C(=O)Nc3cc4cc(-c5cnn(C)c5)ccc4cn3)ccn2)CC1, the viability, T/C is 5.41%.
The same measure, in the same setting: the value for `Nc1ccn(C2OC(CO)C(O)C2(F)F)c(=O)n1` (centres undefined) + CNC(=O)c1ccc(Nc2nc(OC3CCCC3)c3c(-c4ccc5nc(C)oc5c4)c[nH]c3n2)c(OC)c1 was 31.3%; that for `O=C(c1cc(Cc2n[nH]c(=O)c3ccccc23)ccc1F)N1CCN(C(=O)C2CC2)CC1` + CN1CCN(c2cc(C(=O)Nc3cc4cc(-c5cnn(C)c5)ccc4cn3)ccn2)CC1 was 3.59%.

Staying with this test, now noted: second compound 10 µM; first compound 3.16 µM; active compounds read low.
Regarding `O=c1[nH]cc(F)c(=O)[nH]1` + CN1CCN(c2cc(C(=O)Nc3cc4cc(-c5cnn(C)c5)ccc4cn3)ccn2)CC1, the viability, T/C is 2.63%.
The same measure, in the same setting: the value for `Nc1ccccc1NC(=O)c1ccc(CNC(=O)OCc2cccnc2)cc1` + CN1CCN(c2cc(C(=O)Nc3cc4cc(-c5cnn(C)c5)ccc4cn3)ccn2)CC1 was 10%.
The same measure, in the same setting: the value for `Nc1ccn(C2OC(CO)C(O)C2(F)F)c(=O)n1` (centres undefined) + CNC(=O)c1ccc(Nc2nc(OC3CCCC3)c3c(-c4ccc5nc(C)oc5c4)c[nH]c3n2)c(OC)c1 was 36.6%; that for `O=C(c1cc(Cc2n[nH]c(=O)c3ccccc23)ccc1F)N1CCN(C(=O)C2CC2)CC1` + CN1CCN(c2cc(C(=O)Nc3cc4cc(-c5cnn(C)c5)ccc4cn3)ccn2)CC1 was 3.68%.

Still in this test, the particulars now being: second compound 10 µM; first compound 10 µM; active compounds read low.
In the case of `O=c1[nH]cc(F)c(=O)[nH]1` + CN1CCN(c2cc(C(=O)Nc3cc4cc(-c5cnn(C)c5)ccc4cn3)ccn2)CC1, the viability, T/C was 3.59%.
On the same count and under the same terms, the figure for `Nc1ccccc1NC(=O)c1ccc(CNC(=O)OCc2cccnc2)cc1` + CN1CCN(c2cc(C(=O)Nc3cc4cc(-c5cnn(C)c5)ccc4cn3)ccn2)CC1 is 1.39%; for `Nc1ccn(C2OC(CO)C(O)C2(F)F)c(=O)n1` (centres undefined) + CNC(=O)c1ccc(Nc2nc(OC3CCCC3)c3c(-c4ccc5nc(C)oc5c4)c[nH]c3n2)c(OC)c1 it is 39.8%.
The same measure, in the same setting: the figure for `O=C(c1cc(Cc2n[nH]c(=O)c3ccccc23)ccc1F)N1CCN(C(=O)C2CC2)CC1` + CN1CCN(c2cc(C(=O)Nc3cc4cc(-c5cnn(C)c5)ccc4cn3)ccn2)CC1 is 2.67%.

As usually defined, the viability, T/C is the result in the treated group divided by that in the control group, in per cent.
